Assay results taken from a melting point compilation (Tetko et al.; mined from patent text by program, amines drawn as free bases though some values may be those of a salt).

melting point [°C] | SMILES
198 to 200 | Cc1cc2c(cc1C)C1(O)C(=O)c3ccccc3C1(O)O2 (stereo not drawn)
255 to 256 | Nc1ncc(-c2ccnc(N3CCOCC3)n2)c2ccccc12
177 to 180 | O=C(O)CC12CCC(=O)N1C(=O)CC2
181 to 182 | Cc1nc2cccc3c(=O)n(CCCCNS(=O)(=O)C(F)(F)F)c(=O)c1n23
147 to 149 | C=CC(=O)N1CCSC1c1cc(C(C)(C)C)c(O)c(C(C)(C)C)c1 (stereo not drawn)
155 to 156 | O=C(O)CCc1cn(Cc2ccc(OCCn3ncc4ccccc4c3=O)cc2)nc1-c1ccccc1
121 to 122 | CCOC(=O)C=Cc1ccc(OC(C)c2nc(-c3ccccc3)oc2C)c(OC)c1 (stereo not drawn)
154 to 156 | CCOC(=O)c1cnc(-c2ccccc2)nc1Nc1ccccc1N
125 to 128 | CNCC1Cc2cc(Cl)cc(C3CCCCC3)c2O1 (stereo not drawn)
147 to 148 | COc1ccc(C2CC(=O)CCC2[N+](=O)[O-])cc1OC (stereo not drawn)
176 to 179 | CN(C)C(=O)c1cc2c(nc(C3CC3)n2C)c2c1CCC(c1ccccc1)O2 (stereo not drawn)
148 to 150 | COc1ccc(C)cc1NC(=O)Nc1ccc(N2CCN(C(=O)Nc3ccc(OCC(O)CO)cc3C)CC2)cc1 (stereo not drawn)
119 to 121 | O=C(NC1CCc2ccccc2CC1=O)OCc1ccccc1 (stereo not drawn)
148 to 150 | CC(=O)Nc1ccc(Sc2cccn3nc(Cl)nc23)cc1
132 to 134 | Cc1cc(O)c(S(=O)CC2CCCCC2)c(=O)o1 (stereo not drawn)
144 to 147 | CCOC(=O)Cn1c2c(c3c(Cl)cc(Cl)cc31)CCN(C(=O)OC(C)(C)C)CC2
197 to 200 | CCOCc1nc2c(N)nc3ccccc3c2n1CCCCS(=O)(=O)Nc1ccccn1
172 to 173 | CCCC12CCC(=O)C=C1c1c(cc(OC)c(Cl)c1Cl)O2 (stereo not drawn)
178 to 180 | O=C(NCCO)c1[nH]c2ccc(Cl)cc2c1-c1ccccc1F
190 to 191 | COC(=O)c1nc2nn(-c3ccccc3)c(C)c2c(N)c1C(=O)OC
110 | CCOc1ccc([N+](=O)[O-])c(C=C[N+](=O)[O-])c1OCc1ccccc1
98 to 100 | CN(C)CCc1cn(Cc2ccccc2)c2ccc(C(C#N)S(=O)(=O)N(C)C(c3ccccc3)c3ccccc3)cc12 (stereo not drawn)
141 to 142 | CCC(=O)OCOC(=O)c1cc(S(N)(=O)=O)c(Cl)cc1NCc1ccco1

melting point [°C] | SMILES
232 to 233 | CCC(CC)C(NC(=O)c1ccc(Cl)cc1)Nc1c(Nc2cccnc2)c(=O)c1=O (stereo not drawn)
182 to 185 | Cc1ccc(-c2nc3ccc(Cl)nc3n2CC(=O)N(C)C)cc1
61 to 62 | CON(C)C(=O)CCCCCCNC(=O)c1cn2c3c(cccc13)CCC2
213 to 214 | Cc1c(-c2ccccc2)oc2c(NC(=O)NCCCl)cccc2c1=O
207 to 209 | CC(C)(C)OC(=O)N(CCc1ccc(C(F)(F)F)cc1)C1CCN(C[C@@]2(C)Cn3cc([N+](=O)[O-])nc3O2)CC1
138 to 140 | CCOC(=O)C1=C(C)S(=O)CCS1(=O)=O (stereo not drawn)
180 to 182 | Cc1cc(-n2cnn(Cc3ccc(F)cc3)c2=O)sc1C(=O)NCc1cccnc1
165 to 167 | Cc1cc(-n2ccc(OCc3ccccc3)cc2=O)sc1C(=O)NCc1cccnc1
62 to 65 | COc1ccc(CCCN2C=CC=C3C2=Nc2ccc(Cl)cc2S(=O)(=O)N3C)cc1
182 to 184 | CCCNC(=O)C(C)Cc1ccc2c(c1)c(Cc1ccc(C(=O)NS(=O)(=O)c3ccccc3C)cc1OC)cn2C(C)C (stereo not drawn)
60 | O=C(OCc1c(F)c(F)nc(F)c1Cl)c1ccccc1
104 to 105 | CNC(=O)C(=NOC)c1ccccc1COc1ncc(C)cc1Br
37 | CCCCCNC(=O)CCCCC
138 to 140 | NS(=O)(=O)c1ccc(N2N=C(C(F)(F)F)CC2c2c[nH]c3ccccc23)cc1 (stereo not drawn)
177 to 178 | CN(C)c1cc(-c2nnn(Cc3ccc(C(=O)O)cc3)n2)ccc1OC(=O)C(C)(C)C
129 to 131 | CC(C)(C)c1cc(CSP(=S)(C2CCCCC2)C2CCCCC2)cc(C(C)(C)C)c1O
97 to 99 | CCCN(CCC)S(=O)(=O)c1ccc(C(=O)c2cc3c(cc2C)OC(C(=O)OCC)O3)cc1 (stereo not drawn)
119 to 121 | O=C(O)CCCCCCCCCCCNC(=O)CCCCCCCCC/C=C/c1ccccc1
79 to 81 | CCc1ccc(OC(=O)c2ccccc2)c(C(=O)c2ccc(Cl)cc2)c1
229 to 230 | Cc1nnc(-c2ccc3occ(-c4ccc(S(=O)(=O)Cc5ccccc5)cc4)c3c2)o1
112 to 120 | CC1(C)CC(O)(C(F)(F)F)C(Nc2cccc3[nH]ncc23)c2ccc(Cl)c(O)c21 (stereo not drawn)
60 to 68 | COC(=O)c1cncn1C1c2ccccc2C2OC2C1(C)C (stereo not drawn)
129 to 131 | CNS(=O)(=O)c1ccc(C(=O)C=Cc2cc(-c3cc4ccccc4n3C)c(OC)cc2OC)cc1

melting point [°C] | SMILES
125 to 127 | Cn1cc(C2=C(c3cn(CCCSc4ncccn4)c4ccccc34)C(=O)NC2=O)c2ccccc21
238 to 240 | Oc1ccc2c(c1)COc1c-2cc2ccc(O)cc2c1-c1cc(F)cc(F)c1
69 to 70 | O=C1c2ccccc2C(=O)N1CCCC(c1ccc(F)cc1)c1ccc(F)cc1
178 to 179 | CCCN(Cc1ccc(-c2ccccc2-c2nnnn2C(c2ccccc2)(c2ccccc2)c2ccccc2)cc1)c1nc(C)nnc1C(=O)OCC
162 to 164 | C1=Cc2ccccc2C(C2CCN(C3CCCCC3)CC2)c2ccccc21
228 to 235 | O=C1NC(=O)c2c1c(-c1c(O)cccc1Cl)cc1[nH]c3ccc(O)cc3c21
74 | c1coc(CCCCCCOc2ccc(C3=NCCO3)cc2)c1
128 to 130 | COc1ccc(-c2cc3cc(F)c(F)cc3[nH]2)cc1NC(=S)Nc1cccnc1
207 | Cc1ccc(-c2cncc(OC3SCC(O)C(O)C3O)c2)c(Cl)c1 (stereo not drawn)
151 to 153 | CN(c1cc(OCCCS(C)(=O)=O)cc2cc(C3=NCC(CN4CCN(S(C)(=O)=O)CC4)S3)[nH]c12)S(=O)(=O)c1ccccn1 (stereo not drawn)
162 to 164 | COC(=O)c1cc(N(C)C(C)=O)c(Cl)c(N(C)C(C)=O)c1
128 to 129 | CCOC(=O)C=Cc1ccc(OCc2coc(-c3ccccc3)n2)c(OC)c1
184 to 187 | COc1cc2oc(=O)c(CCO)c(C)c2cc1OC
74 | O=C1C=C(C(F)F)C(=O)c2ccccc21
260 | COc1cc2c(cc1F)C(=O)C(=O)N2
87 to 88 | CC(C)C(NC(=O)OC(C)(C)C)C(=O)OC1CC(n2cc(C=CBr)c(=O)[nH]c2=O)OC1CCl (stereo not drawn)
177 to 178 | O=C(NC1CCCCNC1=O)c1cccnc1 (stereo not drawn)
> 300 | CCn1ncc2c3[nH]c4ccnn4c(=O)c3cnc21
110 to 112 | c1ccc(CSc2cnccc2C2=NOCCO2)cc1
> 300 | CCOC(=O)c1cc2c(=O)c3cc(C(C)=O)ccc3oc2nc1N
126 to 128 | COc1cc2c(cc1OC)CN(C(c1ccccc1)c1ccccc1)C2
140 to 146 | CC(=O)OC1CCC2(C)C(CCC3C2CCC2(C)C(C(C)CCCI)CCC32)C1 (stereo not drawn)
164 to 168 | COc1ccc2c(c1)CCC1C2CCC2(C)C=CCC12 (stereo not drawn)

melting point [°C] | SMILES
210 | CC(=O)n1nc(C2CCN(CCc3c(C)nc4c(C)cccn4c3=O)CC2)c2ccc(F)cc21
117 to 118 | O=Cc1nn(-c2ccc(Cl)cc2)c2c1CCCC2
40 | Brc1ccc(CCCCn2ccnc2)cc1
80 to 82 | COC(CN(C)CC1CSC2=C(O1)c1ccccc1C(=O)C2=O)OC (stereo not drawn)
75 to 77 | COc1ccc2c(c1)CCC1=C2CCC(=O)C1
125 | CCOC(=O)CCC(=O)Nc1cc(OC)c(OC)cc1C(=O)OCC
92 | COc1ccc(Oc2ncc(Br)cn2)cc1
> 300 | CCn1cc(C(=O)O)c(=O)c2cc(F)c(N3Cc4ccccc4C3)cc21
145 to 146 | CC(=O)N1CCC(CCC(=O)c2ccc3c(c2)CCN3)CC1
113 to 115 | CCOC(=O)C(=O)CC(=O)C(Br)C(Br)c1ccccc1OC (stereo not drawn)
54 | C=CCc1cc(C(C)=O)c(O)cc1OCCCCC#N
182 | Cc1nc(CO)c(CO)[nH]1
134 to 136 | COc1cccc(C=CC(=O)c2c(OCC=C(C)C)ccc3c(=O)c4ccccc4oc23)c1
277 to 279 | O=C(O)c1ccc2cc(-c3ccc(OCCCO)c(C45CC6CC(CC(C6)C4)C5)c3)ccc2c1
90 to 91 | CNc1nc(Cl)ncc1[N+](=O)[O-]
229 to 233 | COCCc1nc2c(N)nc3ccccc3c2n1CCOCCNC(=O)c1ccc(C(=O)NCCOCCn2c(CCOC)nc3c(N)nc4ccccc4c32)cc1
216 to 218 | COc1nc2ccccc2nc1NC(=O)N1CCN(c2cc([N+](=O)[O-])cc([N+](=O)[O-])c2)CC1
65 to 75 | COC(C)(CCCCCC(C)(C)O)c1cccc(C=Cc2cc(O)cc(O)c2)c1 (stereo not drawn)
157 to 160 | O=C(O)C1=CCC2C1C(=O)C2(Cl)Cl (stereo not drawn)
81 to 83 | CSc1nc(CCC(F)(F)F)nc2sc(C)cc12
193 to 195 | COc1cc(OC)c(NC(=O)NC2(c3ccccc3)CCCC2)c(OC)c1

SMILES | melting point [°C]
OCCSP(=S)(C1CCCCC1)C1CCCCC1 | 82 to 84
COC1=C(C)C(=O)C2=C(C1=O)C(COC(N)=O)C1(OC)C3NC3CN21 (stereo not drawn) | 161
C=C(c1cn(-c2c(Cl)cc(C(F)(F)F)cc2Cl)nc1C#N)C(F)(F)F | 103 to 104
CC1(O)CCC2C3CCC45OC4(C)C(O)=C(C#N)CC5(C)C3CCC21C (stereo not drawn) | 170 to 171
O=C(Nc1ccc(C#CCCN2CC=C(c3ccccc3)CC2)nc1)c1cccs1 | 187 to 188
CC(=O)C1CCC2C3CCC4CC(C)(O)CCC4(C)C3C(=O)CC12C (stereo not drawn) | 175
CN1Cc2c(C(N)=S)ncn2-c2cccc(Cl)c2C1=O | 300 to 302
CC1(C)C(C(=O)Nc2ccccc2)C1(C)C | 149
